This note sets out measurements from patent publication US7528164B2, “Substituted 4-aryl-4h-pyrrolo[2,3-h]chromenes and analogs as activators of caspases and inducers of apoptosis and the use thereof” (Cytovia, Inc., priority 2002, dated 2009).

Each structure is given as a SMILES string. pEC50: −log10 of the molar value. Some results are limits rather than exact numbers.

One experiment relates to T-47D. In words: Caspase cascade activation assay in T-47D cells (N-(Ac-DEVD)-N'-ethoxycarbonyl-R110 fluorogenic substrate). Format: cell-based. As to conditions: T-47D human breast cancer cells, 24 h incubation; for pEC50: T47D, sigmoidal dose-response, read-out: Caspase potency EC50; for Caspase activity (Ratio): ratio of net RFU of test compound to control. The protocol: (§1) Human breast cancer cell lines T-47D and ZR-75-1 were grown according to media component mixtures designated by American Type Culture Collection+10% FCS (Invitrogen Corporation), in a 5% CO2-95% humidity incubator at 37° C. T-47D and ZR-75-1 cells were maintained at a cell density between 30 and 80% confluency at a cell density of 0.1 to 0.6×10^6 cells/mL. Cells were harvested at 600×g and resuspended at 0.65×10^6 cells/mL into appropriate media+10% FCS. An aliquot of 45 μl of cells was added to a well of a 96-well microtiter plate containing 5 μl of a 10% DMSO in RPMI-1640 media solution containing about […] of 2-amino-3-cyano-4-(5-methyl-pyridin-3-yl)-7-methyl-4H-pyrrolo[2,3-h]chromene (Example 10) or other test compound (0.016 to 1 μM final). An aliquot of 45 μl of cells was added to a well of a 96-well microtiter plate containing 5 μl of a 10% DMSO in RPMI-1640 media solution without test compound as the control sample. The samples were mixed by agitation and then incubated at 37° C. for 24 h in a 5% CO2-95% humidity incubator. After incubation, the samples were removed from the incubator and 50 μl of a solution containing 20 μM of N-(Ac-DEVD)-N′-ethoxycarbonyl-R110 (SEQ ID No:1) fluorogenic substrate (Cytovia, Inc.; U.S. Pat. No. 6,335,429), 20% sucrose (Sigma), 20 mM DTT (Sigma), 200 mM NaCl (Sigma), 40 mM Na PIPES buffer pH 7.2 (Sigma), and 500 μg/ml lysolecithin (Calbiochem) was added. The samples were mixed by agitation and incubated at room temperature. Using a fluorescent plate reader (Model 1420 Wallac Instruments), an initial reading (T=0) was made approximately 1-2 min after addition of the substrate solution, employing excitation at 485 nm and emission at 530 nm, to determine the background fluorescence of the control sample. After the 3 h incubation, the samples were read for fluorescence as above (T=3 h).
(§2) The Relative Fluorescence Unit values (RFU) were used to calculate the sample readings as follows: RFU(T=3h)−Control RFU(T=0)=Net RFU(T=3h) The activity of caspase cascade activation was determined by the ratio of the net RFU value for 2-amino-3-cyano-4-(5-methyl-pyridin-3-yl)-7-methyl-4H-pyrrolo[2,3-h]chromene or other test compound to that of control samples. The EC50 (nM) was determined by a sigmoidal dose-response calculation (Prism 2.0, GraphPad Software Inc.).

In the next experiment the test system is ZR-75-1. The experiment in a line: Caspase cascade activation assay in ZR-75-1 cells (N-(Ac-DEVD)-N'-ethoxycarbonyl-R110 fluorogenic substrate). Type of experiment: cell-based. As to conditions: ZR-75-1 human breast cancer cells, 24 h incubation; for Caspase activity (Ratio): ratio of net RFU of test compound to control; for pEC50: sigmoidal dose-response, read-out: Caspase potency EC50. The protocol:
as §1, §2

As usually defined, the pEC50 is the negative decadic logarithm of the EC50, by convention in mol/L. With `Cn1ccc2c3c(ccc21)C(c1ccc(Cl)c(Cl)c1)C(C#N)=C(N)O3` (stereo not drawn) [Example 40E, 2-Amino-3-cyano-4-(3,4-dichlorophenyl)-7-methyl-4H-pyrrolo[2,3-h]chromene], in the experiment on T-47D, the pEC50 is less than 7.00 and the “Caspase activity (Ratio)” value is 1.3. In the experiment with ZR-75-1, the “Caspase activity (Ratio)” value is recorded as 3.2 and the negative logarithm of the EC50 (pEC50) was 7.09.
For `COc1cc(C2C(C#N)=C(N)Oc3c2ccc2c3c(C)cn2C)cc(Br)c1OC` (stereo not drawn) [Example 40F, 2-Amino-3-cyano-4-(3-bromo-4,5-dimethoxyphenyl)-7,9-dimethyl-4H-pyrrolo[2,3-h]chromene] the same measures were 7.38, 2.6, 3.9 and 7.59.
The like results for `Cn1ccc2c3c(ccc21)C(c1ccc(F)c(F)c1)C(C#N)=C(N)O3` (stereo not drawn) [Example 40G, 2-Amino-3-cyano-4-(3,4 difluorophenyl)-7-methyl-4H-pyrrolo[2,3-h]chromene] were, in that order, 7.54, 4.6, 5.9 and 7.82.
For `Cn1ccc2c3c(ccc21)C(c1ccc(Cl)c(F)c1)C(C#N)=C(N)O3` (stereo not drawn) [Example 40H, 2-Amino-3-cyano-4-(3-fluoro-4-chlorophenyl)-7-methyl-4H-pyrrolo[2,3-h]chromene] the same measures were less than 7.00, 1.3, 6.0 and 7.25.
With `Cn1ccc2c3c(ccc21)C(c1ccc(F)c(Br)c1)C(C#N)=C(N)O3` (stereo not drawn) [Example 40I, 2-Amino-3-cyano-4-(3-bromo-4-fluorophenyl)-7-methyl-4H-pyrrolo[2,3-h]chromene], in the experiment with T-47D, the pEC50 was 7.54 and the “Caspase activity (Ratio)” value is 3.9. Further, in the experiment with ZR-75-1, the “Caspase activity (Ratio)” value is reported as 4.4 and the pEC50 is 7.85.
For `Cn1ccc2c3c(ccc21)C(c1ccc(F)c(C#N)c1)C(C#N)=C(N)O3` (stereo not drawn) [Example 40J, 2-Amino-3-cyano-4-(3-cyano-4-fluorophenyl)-7-methyl-4H-pyrrolo[2,3-h]chromene] the same measures were 7.54, 3.6, 5.8 and 7.85.
Regarding `COc1cncc(C2C(C#N)=C(N)Oc3c2ccc2c3ccn2C)c1` (stereo not drawn) [Example 41, 2-Amino-3-cyano-4-(5-methoxy-pyridin-3-yl)-7-methyl-4H-pyrrolo[2,3-h]chromene], the pEC50 in the experiment on T-47D is 8.40; in the experiment with ZR-75-1, 8.70. The “Caspase activity (Ratio)” value with T-47D worked out at 3.8; with ZR-75-1 it was 4.2.
For the compound `CC(C)n1ccc2c3c(ccc21)C(c1cc(Cl)cc(Cl)c1)C(C#N)=C(N)O3` (stereo not drawn) [Example 42, 2-Amino-3-cyano-4-(3,5-dichloro-phenyl)-7-isopropyl-4H-pyrrolo [2,3-h]chromene], in the experiment with T-47D, the pEC50 is less than 7.00 and the “Caspase activity (Ratio)” value amounted to 1.8. In addition, in the experiment on ZR-75-1, the “Caspase activity (Ratio)” value came out at 2.6 and the pEC50 is 7.24.
The like results for `COc1cc(C2C(C#N)=C(N)Oc3c2ccc2c3ccn2C(C)C)cc(Br)c1OC` (stereo not drawn) [Example 43, 2-Amino-3-cyano-4-(3-bromo-4,5-dimethoxy-phenyl)-7-isopropyl-4H-pyrrolo[2,3-h]chromene] were, in that order, 7.24, 2.5, 6.3 and 7.26.
